# From publication PMC9511483, “Refinement of Computational Access to Molecular Physicochemical Properties: From Ro5 to bRo5” (Journal of Medicinal Chemistry, 2022)
# Legend:
# [1] = parameters: method as in Clark 1999; details: atom selection N, O, S, P, H; ref Clark 1999; cited from earlier work
# [2] = log Ptol, miniaturized shake-flask toluene/water; assay type: physicochemical
# Protocol: log Ptol was determined with an automated, miniaturized shake flask method in a 96-well format according to the protocol described by Shalaeva and co-workers.[24]
# [3] = EPSA supercritical fluid chromatography polarity; assay type: physicochemical; details: SFC, Chirex 3014
# Protocol: EPSA was determined following the SFC protocol by Goetz and co-workers.[17] Briefly, a polar stationary phase (Chirex 3014) and a nonpolar mobile phase (supercritical CO2 with the addition of 20 mM ammonium formate in methanol as a modifier) were used to enable separation of compounds based on their polarity. The modifier was varied in 11 min from 5% to 60% at 5%/min in a linear gradient, holding at 60% for 4.9 min and reverting to the original 5% in 0.1 min. The flow rate was 5 mL/min, with the outlet back pressure set to 100 bar instead of 140 bar of the original method. Samples were dissolved in DMSO, the injection volume was 5 μL. The column temperature was set to 40 °C.
# [4] = Thermodynamic solubility; assay type: physicochemical; details: for solubility: 25 °C, thermodynamic from solid, thermodynamic solubility, read-out: Solubility 25ºC log S (converted)
# Protocol: Table S1: Thermodynamic solubility and permeability data of the three selected compounds.
# Solubility 25 °C Permeability
# Molecules log S (mol/l) (cm/s x 10 )
# [5] = PLRP-S retention at 50-100% ACN (chameleonicity); assay type: physicochemical; details: mobile phases 50 to 100% ACN
# From the text: In a recent paper, we proposed to monitor the propensity of compounds to assume a chameleonic behavior through the analysis of the variation of the capacity factor in a nonpolar polymeric chromatographic system, named PLRP-S.[16] Here we applied the same approach and determined the retention of the three compounds in the PLRP-S system with various mobile phases (from 50 to 100% ACN). According to the reverse-phase (RP) nature of the system, the retention time (and thus log k′ PLRP-S) of lipophilic molecules is expected to decrease when increasing the amount of acetonitrile in the mobile phase. […] This experimental finding can be explained by a propensity of Saquinavir to change its conformation in a nonpolar environment, masking its polarity supporting the chameleonic properties of this compound.
# [6] = Δlog kW^IAM polarity descriptor; assay type: physicochemical; details: experimental log kW^IAM minus clog kW^IAM from BRlogD
# From the text: Δlog kW^IAM was earlier defined by Grumetto et al.[48] as (Δlog kW^IAM = experimental log kW^IAM – clog kW^IAM (log kW^IAM for neutral and nonpolar compounds with PSA = 0). Moreover, clog kW^IAM was correlated to log P (octanol/water)[48] and more recently to BRlogD[12] with equation (clog kW^IAM = BRlogD* 0.92–1.03). Therefore, the measurement of BRlogD and log kW^IAM for the three samples allowed to calculate polarity descriptor Δlog kW^IAM.
# [7] = BRlogD chromatographic lipophilicity (XBridge Shield RP18); assay type: physicochemical
# Protocol: (§1) Mobile phases consisted of an isocratic solution of 20 mM ammonium acetate at pH 7.0 and acetonitrile at various percentages (see specific method). Samples were dissolved in buffer/acetonitrile at concentrations ranging from 50 to 100 μg/mL. Chromatographic measurements were analyzed in duplicate. Then 10 μL of each solution (volume of injection) were injected at an isocratic 1 mL/min flow rate, analyzed at 30 °C (oven temperature). Each chromatographic descriptor required a specific HPLC method (see below).
# The three compounds previously dissolved in ACN were injected into the X-Bridge column (mobile phase: 40% buffer, 60% ACN), and the retention times and dead time (t0, baseline disturbance) were recorded. Consequently, capacity factor log k′60 was calculated (log k′60 = [tR – t0]/t0). The corresponding BRlogD value was obtained using equation: BRlogD = 3.31 × log k′60 + 2.79.[12] The used standard is acetone, caffeine, ibuprophen, lidocaine, phenol and a mixture of uracile, acetophenone and toluene.
# [8] = Δlog Poct-tol IMHB propensity; assay type: physicochemical; details: difference between log Poct and log Ptol
# From the text: Δlog Poct-tol([24]) (the difference between log Poct and log Ptol) is an indicator of the capacity of a compound to expose HDon groups, and thus it quantifies the molecular capacity to form dynamic IMHBs. […] Our data support that Saquinavir is the compound with the highest capacity to form IMHB, its Δlog Poct-tol being 0.79. Pomalidomide and CMP 98 show poorer propensity to mask HDon groups, although not negligible.
# [9] = log kW^IAM chromatographic lipophilicity (IAM.PC.DD2 column); assay type: physicochemical; details: extrapolated to 100% buffer, pH 7.0
# Protocol: as §1
# Dissolved samples were injected into column IAM.PC.DD2, and retention times were recorded at different mobile phase percentages (from 10 to 50% ACN). Capacity factor was calculated for each mobile phase condition using equation: k′ = [tR – t0]/t0) t0 being the retention time of a nonretained molecule (citric acid). The log kW^IAM value for each molecule was calculated by extrapolating the 100% buffer value (0% ACN) from the equation obtained with the five mobile phase conditions, previously mentioned. In addition, five standards (caffeine, carbamazepine, ketoprofen, theobromine, and toluene) were examined on a daily basis.[33]
# [10] = SI Table S1; cited from earlier work
# [11] = log k′80 PLRP-S chromatographic lipophilicity; assay type: physicochemical; details: 80% ACN
# Protocol: as §1
# The retention times of the three samples were recorded at 80% ACN and capacity factors were calculated. Moreover, gold standards (acetone, caffeine, phenol, uracil–acetophenone--toluene mix and benzene) were daily checked.[15]
# [12] = system: Caco-2; details: cited from earlier work
# [13] = parameters: method as in PMID 29608068; details: cited from earlier work
smiles,measurement,setting,value
CC(=O)Nc1ccc(O)cc1 [Acetaminophen],3D PSA PSA Clark 1999,[1],58.5 Å2
O=C1CN=C(c2ccccn2)c2cc(Br)ccc2N1 [Bromazepam],3D PSA PSA Clark 1999,[1],57.4 Å2
Cc1ncsc1-c1ccc(CNC(=O)[C@@H]2C[C@H](O)CN2C(=O)[C@@H](NC(=O)COCCOCCOCCOCCOCCOCC(=O)N[C@H](C(=O)N2C[C@@H](O)C[C@H]2C(=O)NCc2ccc(-c3scnc3C)cc2)C(C)(C)C)C(C)(C)C)cc1 [CMP 98],log Ptol (SF),[2],-0.24
same,EPSA,[3],104 A^2
same,solubility,[4],331 µM
same,water solubility,[4]; SI Table S1,water-soluble
same,log k′ PLRP-S behaviour with increasing acetonitrile (chameleonicity index),[5],some deviation from linearity
same,Δlog kW^IAM,[6],2.1
same,chromatographic logD,"[7]; XBridge Shield RP18 HPLC column, 60% ACN, ammonium acetate pH 7.0",1.38
same,Δlog P (Δlog Poct-tol),[8],1.62
same,log kW^IAM,[9],2.34
same,PAMPA permeability,[10],not PAMPA permeable
same,log k´80 PLRP-S,[11],-0.84
Cn1c(=O)c2c(ncn2C)n(C)c1=O [Caffeine],3D PSA PSA Clark 1999,[1],59.2 Å2
O=c1ccc2ccccc2o1 [Coumarin],3D PSA PSA Clark 1999,[1],33.9 Å2
Nc1nnc(-c2cccc(Cl)c2Cl)c(N)n1 [Lamotrigine],3D PSA PSA Clark 1999,[1],96.4 Å2
CN1C(=O)C(O)N=C(c2ccccc2Cl)c2cc(Cl)ccc21 (stereo not drawn) [Lormetazepam],3D PSA PSA Clark 1999,[1],55.9 Å2
Cc1cc(=O)n(-c2ccccc2)n1C [Phenazone],3D PSA PSA Clark 1999,[1],28 Å2
Nc1cccc2c1C(=O)N(C1CCC(=O)NC1=O)C2=O (stereo not drawn) [Pomalidomide],log Ptol (SF),[2],-0.22
same,EPSA,[3],82 A^2
same,Permeability (Caco-2),"[12]; Caco-2, ref 13 (SI)",24.9 cm/s x 10^-6
same,solubility,[4],28.2 µM
same,log k′ PLRP-S behaviour with increasing acetonitrile (chameleonicity index),[5],about in line with expectations
same,Δlog kW^IAM,[6],0.64
same,BRlogD,"[7]; 60% ACN, ammonium acetate pH 7.0",1.41
same,Δlog P (Δlog Poct-tol),[8],1.63
same,log kW^IAM,[9],0.91
same,log k´80 PLRP-S,[11],-0.65
CC(=O)[C@H]1CC[C@H]2[C@@H]3CCC4=CC(=O)CC[C@]4(C)[C@H]3CC[C@]12C [Progesterone],3D PSA PSA Clark 1999,[1],41.2 Å2
O=C(O)c1ccccc1O [Salicylic Acid],3D PSA PSA Clark 1999,[1],62.5 Å2
CC(C)(C)NC(=O)[C@@H]1C[C@@H]2CCCC[C@@H]2CN1C[C@@H](O)[C@H](Cc1ccccc1)NC(=O)[C@H](CC(N)=O)NC(=O)c1ccc2ccccc2n1 [Saquinavir],pKa,[13],7.1
same,log Ptol (SF),[2],2.06
same,EPSA,[3],94 A^2
same,Permeability (Caco-2 with efflux inhibiton),"[12]; Caco-2 with efflux inhibition, ref 11 (SI)",5.0 cm/s x 10^-6
same,Permeability mechanism,[12]; ref 11 (SI),Mainly active transport
same,log k′ PLRP-S behaviour with increasing acetonitrile (chameleonicity index),[5],significantly higher than expected
same,Δlog kW^IAM,[6],1.85
same,BRlogD,[7]; pH 7,2.85
same,Δlog P (Δlog Poct-tol),[8],0.79
same,log kW^IAM,[9],3.44
same,log k´80 PLRP-S,[11],-0.1
Cn1c(=O)c2[nH]cnc2n(C)c1=O [Theophylline],3D PSA PSA Clark 1999,[1],74.7 Å2
